According to patent US20260115314A1, “PREVENTION AND/OR TREATMENT OF CARDIAC DAMAGE” (priority 2022, published 2026):
Where no end group is shown, it is not given here.

How the values were obtained:
[1] = tested on: M2 CD68+/CD206+ macrophages; assay: Flow cytometry of M2 macrophage populations in mouse hearts after IR; assay type: in vivo, mice; conditions: cell extracts from necrotic areas of mouse hearts, 3 and 7 days of IR
Source text: FIG. 7. NIL10 induces M2 macrophage polarization in the hearts of mice subjected to IR. A. Flow cytometry analysis of macrophage populations in mouse hearts after 3 and 7 days of IR. The percentage of M2 CD68+/CD206+ population were selected from the necrotic and at-risk areas of the hearts. B. Gating strategy used to identify macrophage-cell subsets in the health and infarcted mouse heart. A sequential getting strategy was first used to identify M2 population expressing specific macrophage marker CD68, followed by the identification of the population with overlapping expression patterns (CD68/CD206) (N=10 mice/group). Differences between groups were compared using one-way ANOVA. **P<0.01. ***P<0.001. ****P<0.0001.
Whole mouse hearts were mashed in complete DMEM (10% FBS, penicillin/streptomycin) through a 100-μm cell strainer. ACK Lysing Buffer was added to the single-cell suspension and spun down at 350 g for 5 minutes. The ACK was washed out with 50 mL of washing buffer (1% FBS), and cells were incubated with 1:100 anti-EMMPRIN, anti-CD68 and anti-CD206 antibodies. All flow cytometry samples were assayed in a MACSQuant Analyzer Flow Cytometer and analyzed with the Graphpad Prism software package.

[2] = tested on: pigs subjected to IR; assay: Evans Blue/TTC staining of necrotic area in pig hearts after IR; assay type: in vivo; conditions: 1 mg/kg, after 7 days of IR, EvansBlue/TTC
Source text: FIG. 6. NIL10 induces cardiac protection in pigs subjected to IR. A. Evans blue/TTC staining (see methods for details) of pig heart sections (from apex to base) after 7 days of IR, showing healthy tissue (blue), the area at risk (red) and the necrotic areas (white). B. Measurement of necrotic areas of the hearts, represented as a percentage respect to the area at risk (Mean±SD. *P<0.001 NIL10 vs NIL10SC, at day 7 post IR). C. Left ventricle ejection fraction of hearts from pigs injected with NIL10 or NIL10SC after 7 days of IR (Mean±SD. *P<0.001 NIL10 vs NIL10SC). D. Hematoxylin and Eosin staining of healthy and necrotic heart sections from pigs injected with NIL10 or NIL10SC after 7 days of IR. E. Masson Trichrome staining of the same hearts as in D. (N=10 pigs/group).
20 male Yorkshire pigs (30±4 kg) were housed 1 week preceding the surgery to avoid unease or stress associated with the new environment. Prior to the surgical intervention, animals were anesthetized with intramuscular ketamine 10 mg/kg and midazolam 0.5 mg/kg.
Anesthesia was induced by inhaled sevoflurane and maintained with continuous infusion of propofol 2 mL/kg/h, fentanyl 50 μg/kg/h, and diazepam 10 μg/kg/h. […]

[3] = tested on: mouse hearts subjected to IR; assay: Hematoxylin/Eosin and Masson trichrome staining of mouse heart sections after IR; assay type: in vivo, mice; conditions: by day 7 after IR
Source text: FIG. 4. Hematoxylin and Eosin staining of mouse hearts. Heart sections of mice subjected to IR and injected with NIL10 or NIL10SC and collected by days 3 (A) or 7 (B) after IR. N=10 mice/group. From left to right: 2×, 20×, 40×. *P<0.05 D3; **P<0.01D7.
FIG. 5. NIL10 reduce heart fibrosis in response to IR. A. Representative immunoblot of MMP9 from healthy (H) or necrotic (N) areas of mouse hearts after 7 days of IR and injected with NIL10 or NIL10SC. N=10 mice/group. Mean±SD. *P<0.001 NIL10 vs NIL10SC necrotic areas. B. Masson Trichrome staining of heart sections from mice injected with NIL10 or NIL10SC, after 3- or 7-days post IR (N=10 mice/group). *P<0.05 D3; **P<0.03 D7.
(§1) 20 male twelve-week-old wild type, IL10 knock-out and IL10RA knock-out mice C57/BL6 were anesthetized by inhaled 3% sevoflurane and oxygen with a flow rate of 0.4 L/min until loss of righting reflex. Then, endotracheal intubation was perform using an intubation cannula in order to carry out artificial ventilation (tidal volume: 260 μL/stroke, ventilation rate: 130 strokes per minute). The fourth left intercostal space was opened and widened using chest mice retractors. Left ventricle was exposed and LAD was occluded for 30 min close by using a 6-0 silk suture and 1 mm tube. […]
Heart morphology was visualized by Hematoxylin/Eosin staining and collagen deposition was detected by Masson's trichrome staining in mice and pigs.

[4] = tested on: mice subjected to IR; assay: LVEF by echocardiography in wild type mice subjected to IR; assay type: in vivo; conditions: 1 mg/kg 24 hours after IR, value NIL10 is compared against, day not given
Source text: FIG. 3. NIL10 induces cardiac protection in mice subjected to IR. A. Outline of the proceedings performed. B. Representative electrocardiogram, showing ST-elevation after LAD occlusion. C. Left ventricle ejection fraction (LVEF) of wild type mouse hearts at the times indicated after IR and injected with NIL10 or NIL10SC as in A. N=10 mice/group. Results expressed as mean±SD. *P<0.03 NIL10 vs NIL10SC day 7. #P<0.05 NIL10 vs NIL10SC day 3. D. LVEF in IL-10 knockout mice. N=10 mice/group. Results expressed as mean±SD. *P<0.01 NIL10 vs NIL10SC day 7. #P<0.05 NIL10 vs NIL10SC day 3. E. LVEF in IL-10 receptor knockout mice. N=10 mice/group. Results expressed as mean±SD.
as §1, with “tube. Reperfusion was performed by ligation release. After the procedure, the chest was closed, negative pressure restored, and the skin sutured.” for “tube.”

[5] = target: T1, IL-10R (Mus musculus, UniProt Q61727); assay: Confocal microscopy colocalization of nanoparticles with IL-10R in RAW 264.7 macrophages; assay type: binding; conditions: RAW 264.7 cells, rhodamine nanoparticle vs FITC anti-IL-10R
T1 construct: endogenous in cells; host or cells: RAW 264.7 macrophages
T1 sequence (Q61727 17-575): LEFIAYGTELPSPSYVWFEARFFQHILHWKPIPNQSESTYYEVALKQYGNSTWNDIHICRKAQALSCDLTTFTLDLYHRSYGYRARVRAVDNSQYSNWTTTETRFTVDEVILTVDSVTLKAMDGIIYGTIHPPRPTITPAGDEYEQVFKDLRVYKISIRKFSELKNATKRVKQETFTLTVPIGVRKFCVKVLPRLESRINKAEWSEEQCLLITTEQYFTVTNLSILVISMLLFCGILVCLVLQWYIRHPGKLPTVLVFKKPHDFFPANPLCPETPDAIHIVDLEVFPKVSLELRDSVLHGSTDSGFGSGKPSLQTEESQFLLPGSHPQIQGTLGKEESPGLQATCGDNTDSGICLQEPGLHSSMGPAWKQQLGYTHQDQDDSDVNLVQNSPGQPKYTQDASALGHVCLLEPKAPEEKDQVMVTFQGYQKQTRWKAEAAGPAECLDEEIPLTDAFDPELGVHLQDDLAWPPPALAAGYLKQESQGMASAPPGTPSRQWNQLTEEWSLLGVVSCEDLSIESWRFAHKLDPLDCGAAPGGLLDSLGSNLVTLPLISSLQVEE
Description: FIG. 1. NIL10 binds to IL-10R in RAW 264.7 cells. A. Nanoparticle composition of NIL10 and NIL10SC. B. Z-potential, longitudinal and transversal relaxivities of NIL10 and NIL10SC nanoparticles. C. Bright field and confocal microscopy sections of RAW 264.7 macrophages, detecting rhodamine (red) containing NIL10 nanoparticles. D,E Colocalization of NIL10 (D) (rhodamine, red) or NIL10SC (E) with IL-10R (FICT, green) in confocal microscopy sections of RAW 264.7 cells incubated with NIL10 and anti-IL-10R specific antibody. Merged panel show co-localization of both signals. Nuclei were stained with Hoechst. Right panel: colocalization analysis with Image J co-localization plugin software, in which white dots correspond to co-localization (N=3).
To study the specificity of nanoparticles, we first incubated NIL10 (FIG. 1A, B) in RAW 264.7 macrophages, detecting rhodamine-containing nanoparticles by confocal microscopy (FIG. 1C).

[6] = tested on: NF-κB; assay: NF-κB (p65) nuclear translocation in LPS-stimulated RAW 264.7 macrophages, confocal microscopy; assay type: cell-based; conditions: RAW 264.7 cells, NIL10, co-incubated with 5 μM STATTIC
Description: (§2) A. Confocal microscopy detection of NF-κB (p65) in RAW 264.7 cells stimulated with 500 μM LPS or in combination with NIL10. Nuclei were stained with DAPI. […] (N=3, results expressed as Mean±SD. *P<0.05 LPS/NIL10 vs LPS/NIL10SC). […] Confocal microscopy detection as in A, in which STATTIC, a pharmacological inhibitor of STAT3 was incubated. Arrows point nuclear or cytoplasmic localization of p65. Lower panels: immunoblot detection of iNOS in cells as in C. (N=3, results expressed as Mean±SD. *P<0.03 LPS vs LPS/NIL10 **P<0.05 LPS/STATTIC vs LPS/NIL10SC/STATTIC. ***P<0.001 NIL10/STATIC vs LPS/NIL10/STATIC).
(§3) The expression of the readout inducible nitric oxide synthase (iNOS) by pro-inflammatory signals was also assayed.

[7] = tested on: inducible nitric oxide synthase (iNOS); assay: Immunoblot of iNOS in LPS-stimulated RAW 264.7 macrophages; assay type: cell-based; conditions: NIL10 plus STATTIC
Description: as §2, §3

Molecule | presence of M2-resolving macrophages [1] | necrotic area [2] | extension of fibrosis (Masson Trichrome) [3] | LVEF (comparator value) [4] | Colocalization with the IL-10R [5] | NIL10-induced cytoplasmic localization of NF-κB [6] | NIL10 inhibition of iNOS expression in the presence of STATTIC [7]
NIL10SC: nanoparticle conjugated with the same peptide in a scrambled orientation (CANYRMITKM); control, does not bind IL10R (also: conjugated to nanoparticle (site not given here)) | takes 7 days to detect a similar effect | 55±7.34 percentage respect to the area | fibrotic lesions were widespread | 41.5%±4.33 | no binding |  | 
O=[N+]([O-])c1ccc2c(c1)S(=O)(=O)C=C2 [STATTIC] |  |  |  |  |  | prevented | reversed
